Results from patent publication US20090100532A1, “TRANSGENIC MICE EXPRESSING HYPERSENSITIVE NICOTINIC RECEPTORS” (CALIFORNIA INSTITUTE OF TECHNOLOGY, priority 2007, published 2009).
Several values for one entry are separate records, joined by “and”; a condition that tells them apart may be missing. Identical values can stand only once. Like-named read-outs stand apart in the source and are kept apart here.

Key:
[1] = tested on: striatal (ST and OT combined) synaptosomes
Description: (§1) Neurotransmitter Release from Striatal Synaptosomes. After a mouse was sacrificed by cervical dislocation, its brain was removed and placed immediately on an ice-cold platform and brain regions were dissected. Tissues from each mouse were homogenized in 0.5 ml of ice-cold 0.32 M sucrose buffered with 5 mM HEPES, pH 7.5. A crude synaptosomal pellet was prepared by centrifugation at 12,000 g for 20 min. The pellets were resuspended in “uptake buffer”: 128 mM NaCl, 2.4 mM KCl, 3.2 mM CaCl2, 1.2 mM KH2PO4, 1.2 mM MgSO4, 25 mM HEPES, pH 7.5, 10 mM glucose. For DA uptake, buffer was supplemented with 1 mM ascorbic acid and 0.01 mM pargyline, whereas for GABA uptake, buffer was supplemented with 1 mM aminooxyacetic acid. For [^3H]GABA uptake, synaptosomes were incubated for 10 min at 37° C. […] For DA uptake, synaptosomes were incubated at 37° C. in uptake buffer for 10 min before addition of 100 nM [^3H]dopamine (1 μCi for every 0.2 ml of synaptosomes), and the suspension was incubated for an additional 5 min.
(§2) All experiments were conducted at room temperature using methods described previously (Nashmi et al., 2007; Salminen et al., 2007) with modifications for collection into 96-well plates. In brief, aliquots of synaptosomes (80 μl) were distributed onto filters and perfused with buffer (uptake buffer containing 0.1% bovine serum albumin and 1 μM atropine with 1 μM nomifensine (for DA release) or 0.1 μM NNC-711 [1-(2-(((diphenylmethylene)amino)oxy)ethyl)-1,2,5,6-tetrahydro-3-pyridinecarboxylic acid hydrochloride]) (for GABA release) at 0.7 ml/min for 10 min, or buffer for 5 min followed by buffer with 50 nM αCtxMII. […] Fractions (−0.1 ml) were collected for 4 min into 96-well plates every 10 sec starting from 1 min before stimulation, using a Gilson FC204 fraction collector with a multicolumn adapter (Gilson, Inc.; Middleton, Wis.). Radioactivity was determined by scintillation counting using a 1450 MicroBeta Trilux scintillation counter (Perkin Elmer Life Sciences-Wallac Oy; Turku, Finland) after addition of 0.15 ml Optiphase ‘SuperMix’ scintillation cocktail. Instrument efficiency was 40%.
(§3) Data were analyzed using SigmaPlot 5.0 for DOS. Perfusion data were plotted as counts per minute versus fraction number. Fractions collected before and after the peak were used to calculate baseline as a single exponential decay. The calculated baseline was subtracted from the experimental data. Fractions that exceeded baseline by 10% or more were sunmmed to give total released cpm and then normalized to baseline to give units of release [(cpm-baseline)/baseline]. Agonist dose response data were fit to the Hill equation.

LC neurons (α6* nAChRs) = type: cell-based, mouse
[2] = target: hypersensitive nicotinic receptors in α6L9′S VTA DA neurons (Mus musculus, UniProt Q9ERK7+Q9R0W9, L280S); type: cell-based
hypersensitive nicotinic receptors in α6L9′S VTA DA neurons, sequence (Q9ERK7 whole entry, looked up, stated change not applied): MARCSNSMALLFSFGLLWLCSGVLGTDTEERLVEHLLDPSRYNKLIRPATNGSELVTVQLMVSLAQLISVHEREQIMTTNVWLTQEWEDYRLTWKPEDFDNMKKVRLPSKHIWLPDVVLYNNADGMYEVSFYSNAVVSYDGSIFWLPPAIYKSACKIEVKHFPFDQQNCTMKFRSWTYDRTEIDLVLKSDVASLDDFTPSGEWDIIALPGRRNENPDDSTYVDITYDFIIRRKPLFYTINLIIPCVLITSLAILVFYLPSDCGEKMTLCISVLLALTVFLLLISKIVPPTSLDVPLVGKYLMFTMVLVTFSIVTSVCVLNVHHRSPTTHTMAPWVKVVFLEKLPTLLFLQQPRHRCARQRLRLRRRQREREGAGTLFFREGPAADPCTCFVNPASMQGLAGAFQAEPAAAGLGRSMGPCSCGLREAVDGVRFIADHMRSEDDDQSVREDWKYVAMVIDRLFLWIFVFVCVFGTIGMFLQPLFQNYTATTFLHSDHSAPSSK
hypersensitive nicotinic receptors in α6L9′S VTA DA neurons, sequence (Q9R0W9 whole entry, looked up, stated change not applied): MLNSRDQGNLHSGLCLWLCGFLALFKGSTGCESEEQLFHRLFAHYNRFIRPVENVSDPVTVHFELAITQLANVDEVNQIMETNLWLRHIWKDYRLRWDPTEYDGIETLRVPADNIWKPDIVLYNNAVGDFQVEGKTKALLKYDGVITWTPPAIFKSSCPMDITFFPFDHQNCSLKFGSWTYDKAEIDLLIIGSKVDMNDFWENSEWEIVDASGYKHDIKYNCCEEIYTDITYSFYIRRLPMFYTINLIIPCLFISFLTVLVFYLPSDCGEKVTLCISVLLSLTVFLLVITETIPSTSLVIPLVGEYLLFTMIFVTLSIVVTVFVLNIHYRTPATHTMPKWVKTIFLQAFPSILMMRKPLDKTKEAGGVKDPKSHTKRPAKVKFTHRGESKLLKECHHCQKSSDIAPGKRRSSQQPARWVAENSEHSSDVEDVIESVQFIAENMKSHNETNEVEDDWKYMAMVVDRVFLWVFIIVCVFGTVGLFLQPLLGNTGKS

[3] = target: tonically active α6^L9′S channels in VTA DA neurons (Mus musculus, UniProt Q9ERK7+Q9R0W9, L280S); type: cell-based
tonically active α6^L9′S channels in VTA DA neurons, sequence (Q9ERK7 whole entry, looked up, stated change not applied): as the sequence (Q9ERK7 whole entry, looked up, stated change not applied) above
tonically active α6^L9′S channels in VTA DA neurons, sequence (Q9R0W9 whole entry, looked up, stated change not applied): as the sequence (Q9R0W9 whole entry, looked up, stated change not applied) above

α6^L9′S mice = conditions: mouse, in vivo
Description: (§4) Locomotor Activity. Mice used to study locomotion were eight to sixteen weeks old by the beginning of an experiment, and were back-crossed to C57BL/6 at least three times. […] Mouse horizontal locomotor activity was measured with an infrared photobeam activity cage system (San Diego Instruments; San Diego, Calif.). Ambulation events were recorded when two contiguous photobeams were broken in succession. Acute locomotor activity in response to nicotinic ligands or other agents was studied by recording ambulation events during four 15 sec intervals per minute for a designated number of minutes. For most experiments, groups of eight mice were placed in the activity cages (18×28 cm) and their baseline level of activity was recorded for eight minutes. Mice were removed from their cage, injected (100 μl per 25 g body mass), and returned to the cage within 15 sec. […] For generation of locomotor activity concentration-response relationship profiles, a group of mice was administered saline and, after five to eight days off, each successive dose of drug. […] For 48 h home cage monitoring, mice were isolated in their own cage and habituated to the test room and cage for 24 h. Following this, locomotor activity was recorded in 15 min intervals for 48 h.

nAChRs = type: biochemical, mouse; conditions: for EC50: read-out: EC50 (±SEM), Total DA release
Description: as §1, §2, §3

WT mice = conditions: mouse, in vivo
Description: as §4

α3β4 receptors = target: T1, α3β4 receptors (UniProt P12392+P32297); experiment: Two-electrode voltage clamp, X. laevis oocytes, α3β4; type: cell-based
T1 construct: expressed in transfected cells; host or cells: Xenopus laevis oocytes injected with cRNA
T1 sequence (P32297 32-505): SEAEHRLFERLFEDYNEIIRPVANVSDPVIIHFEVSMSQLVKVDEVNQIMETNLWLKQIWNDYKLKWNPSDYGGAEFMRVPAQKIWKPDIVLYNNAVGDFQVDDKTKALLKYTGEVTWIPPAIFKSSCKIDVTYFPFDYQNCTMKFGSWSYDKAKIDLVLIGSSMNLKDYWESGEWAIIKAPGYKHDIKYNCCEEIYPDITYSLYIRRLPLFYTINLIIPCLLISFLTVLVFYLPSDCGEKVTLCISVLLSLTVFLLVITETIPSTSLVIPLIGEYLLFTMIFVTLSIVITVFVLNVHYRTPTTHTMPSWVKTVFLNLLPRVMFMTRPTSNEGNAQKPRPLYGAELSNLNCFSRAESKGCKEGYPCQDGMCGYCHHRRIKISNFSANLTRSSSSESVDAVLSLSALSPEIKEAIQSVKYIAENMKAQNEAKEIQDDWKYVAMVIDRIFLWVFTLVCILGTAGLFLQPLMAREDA
T1 sequence (P12392 21-495): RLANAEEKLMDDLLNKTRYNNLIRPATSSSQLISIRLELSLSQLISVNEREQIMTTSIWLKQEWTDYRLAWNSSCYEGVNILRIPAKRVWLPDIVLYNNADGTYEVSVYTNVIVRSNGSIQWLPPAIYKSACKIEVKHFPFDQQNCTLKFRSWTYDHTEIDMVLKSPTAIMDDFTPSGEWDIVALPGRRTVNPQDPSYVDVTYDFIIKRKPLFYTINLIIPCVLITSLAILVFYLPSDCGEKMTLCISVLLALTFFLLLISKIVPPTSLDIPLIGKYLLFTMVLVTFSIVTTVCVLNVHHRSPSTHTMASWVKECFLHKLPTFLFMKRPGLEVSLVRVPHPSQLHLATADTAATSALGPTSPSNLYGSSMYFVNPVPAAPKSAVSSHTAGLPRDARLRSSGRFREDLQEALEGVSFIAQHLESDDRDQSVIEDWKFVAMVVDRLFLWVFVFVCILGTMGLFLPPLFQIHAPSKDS
Description: (§5) Two-Electrode Voltage-Clamp Electrophysiology. Stage V to VI X. laevis oocytes were isolated as described previously (Quick and Lester, Ion Channels of Excitable Cells, Narahashi T ed., pp 261-279, 1994). Stock RNAs were diluted into diethyl pyrocarbonatetreated water and injected 1 day after isolation. RNA was injected in a final volume of 50 nl per oocyte using a digital microdispenser (Drummond Scientific, Broomall, Pa.). After injection, oocytes were incubated in ND-96 solution (96 mM NaCl, 2 mM KCl, 1 mM CaCl2, 1 mM MgCl2, and 5 mM HEPES/NaOH, pH 7.6) supplemented with 50 μg/ml gentamicin and 2.5 mM sodium pyruvate. After 1 to 4 days for nAChR expression, oocytes were used for recording or confocal microscopy.
(§6) Agonist-activated nicotinic receptor responses were measured by two-electrode voltage-clamp recording using a GeneClamp 500 (Molecular Devices, Sunnyvale, Calif.) voltage clamp. Electrodes were constructed from Kwik-Fil borosilicate glass capillary tubes (1B150F-4; WPI, Sarasota, Fla.) using a programmable microelectrode puller (P-87; Sutter Instrument Company, Novato, Calif.). The electrodes had tip resistances of 0.8 to 2.0 MΩ after filling with 3 M KCl. […]

α3β4β3 receptors = target: T2, α3β4β3 receptors (UniProt P12392+P32297); experiment: Two-electrode voltage clamp, X. laevis oocytes, α3β4β3; type: cell-based
T2 construct: expressed in transfected cells; host or cells: Xenopus laevis oocytes injected with cRNA
T2 sequence (P32297 32-505): as the sequence (P32297 32-505) above
T2 sequence (P12392 21-495): as the sequence (P12392 21-495) above
T2 sequence (Q8BMN3 31-464 partner): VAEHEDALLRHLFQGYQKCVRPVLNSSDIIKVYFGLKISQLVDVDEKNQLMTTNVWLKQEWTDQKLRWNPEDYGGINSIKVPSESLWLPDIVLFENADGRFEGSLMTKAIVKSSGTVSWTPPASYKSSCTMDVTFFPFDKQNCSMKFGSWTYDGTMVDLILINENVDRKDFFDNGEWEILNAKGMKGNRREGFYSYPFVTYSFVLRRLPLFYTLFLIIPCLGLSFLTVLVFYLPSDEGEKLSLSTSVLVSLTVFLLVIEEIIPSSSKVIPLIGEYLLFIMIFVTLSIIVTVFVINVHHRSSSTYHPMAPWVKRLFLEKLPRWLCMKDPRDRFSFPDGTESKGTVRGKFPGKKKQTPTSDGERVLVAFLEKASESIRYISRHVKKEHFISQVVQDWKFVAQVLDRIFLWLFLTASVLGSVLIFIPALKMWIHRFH
Description: as §5, §6

α4Yβ2 receptors = type: cell-based, mouse
α6* nAChRs [4] = target: T3, α6* nAChRs (Mus musculus, UniProt Q9ERK7+Q9R0W9); experiment: biochemical; type: biochemical
T3 construct: from tissue
T3 sequence (Q9R0W9 31-494): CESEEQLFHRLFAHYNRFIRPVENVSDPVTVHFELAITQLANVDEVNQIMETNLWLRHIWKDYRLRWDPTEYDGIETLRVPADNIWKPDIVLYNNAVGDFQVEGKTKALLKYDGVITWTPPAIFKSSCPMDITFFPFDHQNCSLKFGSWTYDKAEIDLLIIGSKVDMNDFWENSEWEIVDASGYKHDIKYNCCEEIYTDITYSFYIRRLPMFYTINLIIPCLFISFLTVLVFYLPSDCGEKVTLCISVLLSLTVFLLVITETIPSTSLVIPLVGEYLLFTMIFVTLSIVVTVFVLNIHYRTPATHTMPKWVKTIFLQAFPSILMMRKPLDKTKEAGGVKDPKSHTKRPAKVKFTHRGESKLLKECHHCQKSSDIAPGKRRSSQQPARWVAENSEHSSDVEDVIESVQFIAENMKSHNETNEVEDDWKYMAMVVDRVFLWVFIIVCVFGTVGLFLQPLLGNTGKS
T3 sequence (Q8BMN3 31-464, further chain): as the sequence (Q8BMN3 31-464 partner) above
T3 sequence (Q9ERK7 26-501): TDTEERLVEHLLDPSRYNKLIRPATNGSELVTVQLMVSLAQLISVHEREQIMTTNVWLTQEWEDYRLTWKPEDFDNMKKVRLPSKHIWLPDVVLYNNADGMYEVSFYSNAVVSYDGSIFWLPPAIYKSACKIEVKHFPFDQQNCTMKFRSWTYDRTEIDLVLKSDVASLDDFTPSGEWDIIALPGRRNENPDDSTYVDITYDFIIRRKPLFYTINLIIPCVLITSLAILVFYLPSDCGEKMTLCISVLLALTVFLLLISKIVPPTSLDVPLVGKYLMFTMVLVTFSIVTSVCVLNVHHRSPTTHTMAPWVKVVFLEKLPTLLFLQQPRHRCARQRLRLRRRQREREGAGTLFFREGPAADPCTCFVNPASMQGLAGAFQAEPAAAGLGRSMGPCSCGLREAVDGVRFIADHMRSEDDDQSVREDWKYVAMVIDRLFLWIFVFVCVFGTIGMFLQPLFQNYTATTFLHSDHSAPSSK
Description: as §1, §2, §3

α4β2* (non-α6) nAChRs = target: T4, α4β2* (non-α6) nAChRs (Mus musculus, UniProt O70174+Q9ERK7); experiment: biochemical; type: biochemical; conditions: for EC50: read-out: EC50 (±SEM), MII-resistant DA release
T4 construct: from tissue; host or cells: striatal / olfactory tubercle synaptosomes of WT and α6L9′S mice
T4 sequence (Q9ERK7 26-501): as above
T4 sequence (O70174 31-629): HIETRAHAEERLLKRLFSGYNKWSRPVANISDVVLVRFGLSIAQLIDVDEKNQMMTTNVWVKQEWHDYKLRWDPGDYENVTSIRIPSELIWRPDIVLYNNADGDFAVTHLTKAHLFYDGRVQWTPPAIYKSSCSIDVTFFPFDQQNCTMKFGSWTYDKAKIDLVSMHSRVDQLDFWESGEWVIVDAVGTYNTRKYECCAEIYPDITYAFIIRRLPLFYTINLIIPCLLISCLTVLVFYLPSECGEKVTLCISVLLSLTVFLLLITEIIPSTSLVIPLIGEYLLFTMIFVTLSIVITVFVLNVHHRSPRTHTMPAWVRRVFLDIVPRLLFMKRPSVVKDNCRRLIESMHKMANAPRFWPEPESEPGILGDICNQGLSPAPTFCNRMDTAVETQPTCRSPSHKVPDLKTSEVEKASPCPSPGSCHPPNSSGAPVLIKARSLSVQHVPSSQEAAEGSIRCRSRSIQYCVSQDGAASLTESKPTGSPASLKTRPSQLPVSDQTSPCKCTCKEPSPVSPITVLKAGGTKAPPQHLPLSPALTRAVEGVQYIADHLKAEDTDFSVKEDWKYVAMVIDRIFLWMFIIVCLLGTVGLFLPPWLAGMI
Description: as §1, §2, §3

α6* nAChRs [5] = target: T5, α6* nAChRs (Mus musculus, UniProt Q9ERK7+Q9R0W9, L280S); experiment: biochemical; type: biochemical
T5 construct: from tissue
T5 sequence (Q9ERK7 26-501, stated change not applied): as the sequence (Q9ERK7 26-501) above
T5 sequence (Q8BMN3 31-464, further chain): as the sequence (Q8BMN3 31-464 partner) above
T5 sequence (Q9R0W9 31-494 L280S): as the sequence (Q9R0W9 31-494) above, with L250S counted along it
Description: as §1, §2, §3

N2a cells = experiment: TIRF imaging of actin-containing membrane protrusions in N2a cells; type: cell-based, mouse
Description: TIRF Microscopy. N2a cells cultured in glass-bottomed, polyethylenimine-coated imaging dishes were transfected with cDNA mixtures as described above. Cells, superfused with the same imaging solution used for confocal microscopy, were imaged 18 to 24 h after transfection to minimize overexpression artifacts. TIRF images were obtained with an inverted microscope (Olympus IX71; Olympus America, Inc., Center Valley, Pa.) equipped with a 488-nm air-cooled argon laser (P/N IMA111040ALS; Melles Griot, Carlsbad, Calif.). Laser output was controlled with a UNIBLITZ shutter system and drive unit (P/N VMM-D1; Vincent Associates, Rochester, N.Y.) equipped with a Mitutoyo (Mitutoyo America, City of Industry, CA) micrometer to control TIRF evanescent field illumination. TIRF imaging was carried out with an Olympus PlanApo 100×1.45 NA oil objective, and images were captured with a 16-bit resolution Photometrics Cascade charge-coupled device camera (Photometrics, Tucson, Ariz.) controlled by SlideBook 4.0 imaging software (Intelligent Imaging Innovations, Santa Monica, Calif.).

## [K+] [K^+]
[1]
  GABA release stimulated by 20 mM K^+: 8.31 ± 0.34 and 8.24 ± 0.45 and 8.43 ± 0.50

## α-conotoxin MII [αCtxMII]
LC neurons (α6* nAChRs)
  inhibition of nicotine responses in LC neurons: sensitive to αCtxMII
[2]
  block of whole-cell responses to 1 μM nicotine: > 90%
  persistence of block after washout: 30 min
[3]
  effect on increased channel/membrane noise: completely eliminated

## NC1=N[C@H](O)[C@H]2[C@H]3O[C@]4(O)O[C@@H]([C@@H](O)[C@@]2(N1)[C@@H]4O)[C@]3(O)CO [TTX, tetrodotoxin]
[2]
  block of whole-cell responses to 1 μM nicotine: unaffected
[3]
  effect on increased channel/membrane noise: No effect

## COC(=O)[C@@H]1[C@H]2C[C@H]3c4[nH]c5ccccc5c4CCN3C[C@@H]2CC[C@@H]1O [yohimbine]
α6^L9′S mice
  effect of antagonist pre-injection on nicotine-stimulated locomotor response: no change was found

## COc1cc2nc(N3CCN(C(=O)c4ccco4)CC3)nc(N)c2cc1OC [prazosin]
α6^L9′S mice
  effect of antagonist pre-injection on nicotine-stimulated locomotor response: no change was found

## c1cncc(C2CC3CCN2CC3)c1 (racemic) [TC 2429]
nAChRs
  %10 μM nic, Total DA release: 49.0% and 73.40% and 71.00%
  Rmax (±SEM), Total DA release: 8.68 ± 1.25 and 12.87 ± 0.37 and 11.86 ± 0.41
α6^L9′S mice
  locomotor activity: stimulated locomotor activity
WT mice
  locomotor suppression: did not produce locomotor suppression

## CCN1C[C@]2(COC(=O)c3ccccc3N3C(=O)C[C@H](C)C3=O)CC[C@H](OC)[C@@]34[C@@H]5C[C@H]6[C@H](OC)[C@@H]5[C@](O)(C[C@@H]6OC)[C@@](O)([C@@H](OC)[C@H]23)[C@@H]14 [MLA, methyllycaconitine]
[2]
  block of whole-cell responses to 1 μM nicotine: 0%

## CC(=O)OCC[N+](C)(C)C [ACh, acetylcholine]
α3β4 receptors
  EC50: 165 ± 9 µM
α3β4β3 receptors
  EC50: 230 ± 22 µM
α4Yβ2 receptors
  voltage-clamped responses: 200-400 pA

## CNCC/C=C/c1cccnc1 [TC 2403]
nAChRs
  %10 μM nic, Total DA release: 74.11% and 54.47% and 51.19%
  Rmax (±SEM), Total DA release: 10.72 ± 0.61 and 10.57 ± 0.74
  EC50: 0.7 µM and 0.82 µM
nAChRs; ST/OT, WT
  Rmax (±SEM), Total DA release: 12.37 ± 0.93
  EC50: 2.36 ± 0.56 µM
nAChRs; striatal synaptosomes
  potency and efficacy for DA release, α6^L9′S relative to WT: slightly more potent and had equivalent efficacy
α6* nAChRs [4]
  %10 μM nic, MII-sensitive DA release: 28.83%
  agonist character at α6β2* for DA release (vs. nicotine): no activity
α6* nAChRs [4]; ST/OT, WT
  Rmax (±SEM), MII-sensitive DA release: 0.47 ± 0.2
α6* nAChRs [4]; ST/OT, WT, read-out: EC50 (±SEM), MII-sensitive DA release
  EC50: 0.06 ± 0.18 µM
α4β2* (non-α6) nAChRs
  %10 μM nic, MII-resistant DA release: 81.78% and 81.48% and 90.64%
  Rmax (±SEM), MII-resistant DA release: 7.26 ± 0.29 and 9.3 ± 0.33
  agonist character at α4β2 for DA release (vs. nicotine): full agonist (vs. nicotine)
  EC50: 3.53 µM and 4.03 µM
α4β2* (non-α6) nAChRs; ST/OT, WT
  Rmax (±SEM), MII-resistant DA release: 12.32 ± 0.26
  EC50: 2.85 ± 0.35 µM
α6* nAChRs [5]
  %10 μM nic, MII-sensitive DA release: 44.85% and 33.01%
  Rmax (±SEM), MII-sensitive DA release: 4.83 ± 0.15 and 3.43 ± 0.32
  agonist character at the αCtxMII-sensitive receptor: partial agonist
α6* nAChRs [5]; read-out: EC50 (±SEM), MII-sensitive DA release
  EC50: 0.19 µM and 0.1 µM
α6^L9′S mice
  locomotor activity: slight locomotor activation

## picrotoxin
[3]
  effect on increased channel/membrane noise: No effect

## CCN1CCCC1CNC(=O)c1cc(S(N)(=O)=O)ccc1OC (stereo not drawn) [sulpiride]
VTA DA neurons
  baseline firing of VTA DA cells: modestly increase baseline firing
  effect on nicotine-induced increases in firing: did not affect
α6^L9′S mice
  effect of antagonist pre-injection on nicotine-stimulated locomotor response: partially inhibited

## CO[C@H]1CC=C2CCN3CCC4=C(CC(=O)OC4)[C@]23C1 [DHβE, dihydro-β-erythroidine]
[2]
  block of whole-cell responses to 1 μM nicotine: 100%
[3]
  effect on increased channel/membrane noise: completely eliminated

## C/C1=C/C(=O)O[C@@H]2C[C@@H](CC[C@H](C)/C=C\CC1)O[C@@](O)([C@@H]1CSC(=O)N1)C2 [latrunculin B]
N2a cells
  effect on actin-containing membrane protrusions: destroyed

## N#Cc1cc2c(cc1[N+](=O)[O-])=NC(=O)C(=O)N=2 [CNQX, 6-cyano-7-nitroquinoxaline-2,3-dione]
[2]
  block of whole-cell responses to 1 μM nicotine: unaffected
[3]
  effect on increased channel/membrane noise: No effect

## CNC1(C)C2CCC(C2)C1(C)C (stereo not drawn) [mecamylamine]
α6^L9′S mice
  effect of antagonist pre-injection on nicotine-stimulated locomotor response: strong block of the locomotor response
